Measurements published in patent US7863334B2, “Guanylhydrazone compounds, compositions, methods of making and using” (Cytokine PharmaSciences, Inc., priority 2004, dated 2011).

Columns and labels:
[1] = test system: nitric oxide release from LPS-induced RAW 264.7 cells; assay: Inhibition of LPS-induced nitric oxide (nitrite) release from RAW 264.7 cells (Griess reagent); assay type: cell-based; conditions: RAW 264.7 murine macrophage cells, 1 hour pretreatment, 100 ng/mL LPS, 24 hours
Procedure: (§1) The present inventors measured the ability of eight test articles to inhibit LPS-induced nitric oxide and TNFα secretion from murine macrophage cells.
(§2) The studies were conducted in RAW 264.7 cultures.
(§3) RAW 264.7 murine macrophage cells (ATCC, TIB-71) were maintained at 5% CO2, 37° C. in RPMI media (Fisher 15-040-CV, 1 mg/L glutathione) with 10% fetal bovine serum (fbs, Fisher, lot 05069F) plus 2 mM L-glutamine and penicillin/streptomycin. The cells were subcultured every two to three days. Cells were plated in tissue culture treated 96 well plates at a density of 1×10^5 cells/well and incubated at 5% CO2, 37° C. for at least one hour prior to initiation of the assay. The cells were washed with RPMI with 10% fbs prior to the initiation of the assay.
The compounds were weighed, dissolved in DMSO for stock solutions of 10 mg/mL and serially diluted in RPMI. The plated RAW 264.7 cells were pretreated in duplicate with the test compounds, control (CNI-1493) or vehicle for 1 hour at final concentrations of 0, 0.1, 1.0, 10, and 100 μg/mL. […]
To 50 μL of cell-free media, 50 μL of Griess Reagent (1 part 0.1% naphthylethylenediamine diHCl, 1 part 1.32% sulfanilimide in 60% acetic acid) was added and incubated for no more than 5 minutes at ambient temperature. The samples were read on a microtiter plate reader at 540 nm and compared to a 0.1-5 nmol nitrite standard curve.

[2] = test system: TNFα release from LPS-induced RAW 264.7 cells; assay: Inhibition of LPS-induced TNFα release from RAW 264.7 cells (ELISA); assay type: cell-based; conditions: RAW 264.7 murine macrophage cells, 1 hour pretreatment, 100 ng/mL LPS, 24 hours
Procedure: as §1, §2, §3
The compounds were weighed, dissolved in DMSO for stock solutions of 10 mg/mL and serially diluted in RPMI. The plated RAW 264.7 cells were pretreated in duplicate with the test compounds, control (CNI-1493) or vehicle for 1 hour at final concentrations of 0, 0.1, 1.0, 10, and 100 μg/mL. The cells were stimulated with 100 ng/mL LPS (E. coli 0111:B4) and incubated at 5% CO2, 37° C. for 24 hours. The media was collected and stored at −20° C.

C/C(=N\N=C(N)N)c1cc(NC(=O)CCCCCCCCC(=O)Nc2cc(/C(C)=N/N=C(N)N)cc(/C(C)=N/N=C(N)N)c2)cc(/C(C)=N/N=C(N)N)c1.Cl.Cl.Cl.Cl [CNI-1493]
IC50 for inhibition of nitric oxide release [1]: approximately 5.5 μg/mL
IC50 for inhibition of release of TNFα [2]: approximately 8 μg/mL
